Experimental data taken from patent US7858615B2, “(S)-(-)-1-(4-fluoroisoquinolin-5-Yl)Sulfonyl-2-methyl-1,4-homopiperazine hydrochloride dihydrate” (Kowa Co., Ltd., priority 2004, dated 2010).
Entries after “also recorded” stand apart in the source; their conditions may differ. Where a name gives a salt, the structure may show the parent alone.

Experiments:
[1] = Test Example 2 (Hygroscopicity): weight increase in open weighing bottle at 25° C. and controlled RH; assay type: physicochemical; conditions: for hygroscopic stability in words: RH 33% or 92%, time-dependent; for water content reached with elapsed time: eventual value, hydrochloride
Protocol: Each of the dihydrate of the present invention produced in Example 1 and (S)-(−)-1-(4-fluoroisoquinolin-5-yl)sulfonyl-2-methyl-1,4-homopiperazine hydrochloride anhydrate (each 100 mg) was placed in a weighing bottle. The bottle was allowed to stand in a container maintained at 25° C. and an RH of 33% or 92%, with the container being opened. The weighing bottle was time-dependently weighed, to thereby determine increase in weight for evaluation of hygroscopicity. FIGS. 6 and 7 show the results.

[2] = Test Example 1 (Thermal Stability): storage in sealed containers in thermostats; assay type: physicochemical; conditions: for Percent remain (%): sealed container
Protocol: The dihydrate of the present invention produced in Example 1 was placed in sealable containers such that each container included 1 g of the dihydrate. After sealing, these containers were maintained in thermostats at 40, 60, and 80° C. for 7 and 14 days, so as to evaluate thermal stability.

hygroscopic stability in words [1] | water content reached with elapsed time ([1]; relative humidity 92%) | water content reached with elapsed time ([1]; relative humidity 92%, listed as anhydrate) [%] | water content after seven days ([1]; relative humidity 92%, seven days) [%] | thermal stability in words ([2]; after storage at 40° C., 60° C., or 80° C. for two weeks) | Percent remain (%) ([2]; storage temp. 40° C., storage period 7 days) | Percent remain (%) ([2]; storage temp. 40° C., storage period 14 days) | Percent remain (%) ([2]; storage temp. 60° C., storage period 7 days) | Percent remain (%) ([2]; storage temp. 60° C., storage period 14 days) | Percent remain (%) ([2]; storage temp. 80° C., storage period 7 days) | Percent remain (%) ([2]; storage temp. 80° C., storage period 14 days) | thermal stability (decomposition or undesired reaction) in words ([2]; stored at 80° C. for two weeks) | Structure (SMILES) | change of water content (hygroscopic behavior) in words ([1]; relative humidity 92% RH, 14 days, hydrochloride dihydrate)
poor hygroscopic stability | about 40% | 40 | 40 |  |  |  |  |  |  |  |  | C[C@H]1CNCCCN1S(=O)(=O)c1cccc2cncc(F)c12.Cl [anhydrous crystals, (S)-(−)-1-(4-fluoroisoquinolin-5-yl)sulfonyl-2-methyl-1,4-homopiperazine hydrochloride] | 
excellent hygroscopic stability |  |  |  | high thermal stability | 100.0 | 99.6 | 99.6 | 99.8 | 99.8 | 99.8 | does not decompose | C[C@H]1CNCCCN1S(=O)(=O)c1cccc2cncc(F)c12 [dihydrate, (S)-(−)-1-(4-fluoroisoquinolin-5-yl)sulfonyl-2-methyl-1,4-homopiperazine hydrochloride dihydrate] | constant; also recorded: no change in its water content
